Laboratory results from US10828315B2 (Madrigal Pharmaceuticals, Inc., priority 2013, dated 2020).
pIC50: −log10 of the molar value. In brackets after ≈: the same amount, converted by molar mass. Entries after “also recorded” stand apart in the source; their conditions may differ. Read-outs that look alike come from different tables or passages of the source.

Columns and labels:
[1] = test system: human SCLC tumor xenografts; assay: Antitumor activity in human SCLC tumor xenografts; assay type: in vivo, mice
[2] = Solubility of SDC-TRAP-0063 (ganetespib placebo formulation, PEG-300); assay type: physicochemical; conditions: for solubility at 1 h / solubility at 1 day / solubility at 3 days / solubility at 7 days: ganetespib placebo formulation, organic solvent or mixture, thermodynamic from solid
Protocol: Concentration of dissolved drug was determined by HPLC assay method at 1 hr, 1 day, 3 days and 7 days.

[3] = test system: HCT-116 human colorectal xenografts; assay: Mouse xenograft efficacy in HCT-116 colon cancer model; conditions: IV
Protocol: The cells were maintained in vitro as a monolayer culture in McCoy's 5a Medium. Fetal bovine serum was then be added to the medium. The final concentration of fetal bovine serum was 10%. Cells were cultured at 37° C. and 5% CO2. The tumor cells were routinely sub-cultured twice weekly by trypsin-EDTA treatment. Cells in an exponential growth phase were harvested and counted for tumor inoculation.
100 18-22 g, 5-7 week old, female BALB/cA nude mice were inoculated with the HCT 116 cells (2.0×10^6, 1:1 with Matrigel) subcutaneously on the back of each animal (0.1 mL/mouse). When the average tumor volume reached about 150-250 mm^3, 60 of the inoculated mice was selected based on tumor growth and randomly grouped into 6 treatment groups (10 mice per group) according to the following table.
The administrations were made with 27-gauge IV needle.
During the treatment period, the implanted tumors were measured by caliper twice per week. The tumors were measured for the maximum width (X) and length (Y) and the tumor volumes (V) were calculated using the formula: V=(X^2Y)/2. The differences in the tumor volume between the control and treatment groups were analyzed for significance using the unpaired two-tailed Student's t-test. P<0.05 was considered to be statistically significant. The animal body weights were also weighed and recorded twice per week.

[4] = Artificial membrane permeability assay (PAMPA); conditions: same protocol, second table
Protocol: Pre-coated PAMPA plates were warmed to room temperature for at least 30 minutes prior to adding assay components.
Stock solutions were prepared with the SDC-TRAP molecules to be tested. In order to make a working solution, either 50 μL of 100 μM Stock in DMSO+950 μL of PBS or 50 μL of 200 μM stock was added to 96 deep well plate, resulting in a 5 μM final concentration or a 10 μM final concentration, respectively. 3000 μL of the working solution containing each compound to be tested was added to the appropriate well of a donor PAMPA plate. 200 μL of PBS was added into the corresponding wells of an acceptor PAMPA plates.
The acceptor plate was lowered onto the donor plate and allowed to incubate for five hours. After five hours, a 50 μL aliquot was removed from each well of each plate and added into a new 96 deep-well plate.
100 μL of methanol containing an internal standard was added to each aliquot and analyzed by LC/MS.
In order to calculate the permeability for each SDC-TRAP molecule and the control molecules, the following formula was used:

HER2 = HER2 degradation assay with BT-474 cell line (Example 12, FACS); assay type: cell-based, human
[5] = mouse
[6] = test system: Hsp90 client proteins (EGFR, MET, CDC2), Hsp70, DNA damage markers; assay: Pharmacodynamics in SCLC xenograft tumors; assay type: in vivo
[7] = test system: human urinary bladder cancer cell line RT-112; assay: Cytotoxicity assay (CellTiter-Glo, 72 h), RT-112; assay type: cell-based; conditions: RT-112, 72 hours, read-out: Cytotoxicity (IC50, nM) RT-112
Protocol: (§1) Cytotoxicity of SDC-TRAP molecules was determined in three cancer cell lines. […] 80 μL of CellTiter-Glo was added to each well, followed by room temperature incubation in the dark for 15 minutes. Cell was determined by luminescence. IC50 was calculated using XLfit™ software.

SK-OV-3 xenografts = assay: Antitumor activity in SK-OV-3 ovarian cancer xenografts; assay type: in vivo, female Balb/c nude mice; conditions: SDC-TRAP-0063 200 mg/kg group; irinotecan alone and with ganetespib; 200 mg/kg
Protocol: This model is sensitive to HSP90 inhibition.
However, once the dosing is discontinued all but 200 mg/kg of SDC-TRAP-0063 dose group maintained tumor growth inhibition for a prolonged period of time.

[8] = Solubility of SDC-TRAP-0063 (ganetespib placebo formulation, PEG-300); assay type: physicochemical; conditions: PEG-300, organic solvent or mixture, thermodynamic from solid; Lot 8; estimated; read-out: equilibrium solubility in PEG-300
[9] = test system: human breast cancer cell line BT-474; assay: Cytotoxicity assay (CellTiter-Glo, 72 h), BT-474; assay type: cell-based; conditions: BT-474, 72 hours, read-out: Cytotoxicity (IC50, nM) BT-474
Protocol: as §1

[10] = mouse, in vivo; for Tumor Conc.: female, SCID
[11] = kinetic solubility in ganetespib placebo formulation, Lot6
[12] = kinetic solubility in ganetespib placebo formulation, Lot8
[13] = SCLC xenograft tumors, 24 hrs after drug exposure

## CCc1c2c(nc3ccc(OC(=O)N4CCC(CCn5ccc6cc(-n7c(O)nnc7-c7cc(C(C)C)c(O)cc7O)ccc65)CC4)cc13)-c1cc3c(c(=O)n1C2)COC(=O)[C@]3(O)CC [SDC-TRAP-0063, 4,11-diethyl-4-hydroxy-3,14-dioxo-3,4,12,14-tetrahydro-1H-pyrano[3′,4′:6,7]indolizino[1,2-b]quinolin-9-yl 4-(2-(5-(3-(2,4-dihydroxy-5-isopropylphenyl)-5-hydroxy-4H-1,2,4-triazol-4-yl)-1H-indol-1-yl)ethyl)piperidine-1-carboxylate]
[1]; SCLC xenografts
  tolerability: very well tolerated
[1]; once weekly for three weeks, then drug-free period, SDC-TRAP-0063 100 and 150 mg/kg
  antitumor activity in SCLC xenografts (FIG. 19): remarkable and durable antitumor activity compared with irinotecan or ganetespib plus irinotecan
[2]; kinetic solubility in ganetespib placebo formulation (35% v/v tween 80, 40% v/v PEG-300, 25% v/v dehydrated alcohol), Lot6
  solubility at 1 h: 11.3 mg/mL (≈ 12.8 mM)
[2]; [11]
  solubility at 1 day: 10.2 mg/mL (≈ 11.6 mM)
  solubility at 3 days: 9.68 mg/mL (≈ 11 mM)
  solubility at 7 days: 7.32 mg/mL (≈ 8.32 mM)
[2]; [12]
  solubility at 1 h: 36.2 mg/mL (≈ 41.1 mM)
  solubility at 1 day: 35.3 mg/mL (≈ 40.1 mM)
  solubility at 3 days: 30 mg/mL (≈ 34.1 mM)
  solubility at 7 days: 19.7 mg/mL (≈ 22.4 mM)
[2]; lot 6 and lot 8, ganetespib placebo formulation (35% v/v tween 80, 40% v/v PEG-300, 25% v/v dehydrated alcohol), ambient
  solubility over time (1 hr, 1 day, 3 days, 7 days): appear to decrease over time, although no any degradation was observed
[3]; HCT-116 xenografts, Q7D×3
  tolerability: very well tolerated
[3]; Q7D×3, then drug-free period, SDC-TRAP-0063 200 and 100 mg/kg, SDC-TRAP-0046 94 mg/kg, irinotecan 67 mg/kg, SYN-01 100 mg/kg
  antitumor activity in HCT-116 xenografts (FIG. 23): remarkable and durable antitumor activity compared with irinotecan or ganetespib plus irinotecan; also recorded: better activity in inhibiting the growth of HCT-116 cells in vivo than either positive control group; also recorded: significant dose-dependent activity
[4]
  Mass Retention: 18.7%
HER2
  pIC50: 6.10
[5]; 0 h, 10 μM
  Peak Area Ratio: 17.9
[5]; 0.5 h, 10 μM
  Peak Area Ratio: 7.77
[5]; 1 h, 10 μM
  Peak Area Ratio: 1.98
[5]; […], 10 μM
  Peak Area Ratio: 15.6
[5]; plasma, 1 h, 10 µM
  % Remaining (1 h): 11.1%
  % Remaining (1 h, 37° C.): 11.1%
[5]; plasma, 1 h, 10 μM
  % Remaining (1 h): 11.1%
[6]; SCLC xenograft tumors, 24, 72 and 96 hrs
  kinetics of acetyl-histone H3 induction: gradual increase in H3ac levels, peaking at 96 hr
[6]; [13]
  Hsp90 client proteins (EGFR, MET, CDC2) and Hsp70 expression: slight increase in Hsp70 with no impact on EGFR, MET or CDC2
  markers for DNA damage (acetyl-histone H3, p53, p-H2AX): dramatic increase in markers for DNA damage
[6]; SCLC xenograft tumors, out to 96 hrs
  phosphorylation of p53: induced by both agents, though more so with SDC-TRAP-0063
[7]
  IC50: 83 nM
SK-OV-3 xenografts
  antitumor activity in SK-OV-3 xenografts (FIG. 25): maintains the tumor growth inhibition for several weeks; also recorded: statistically significant inhibitory impact on the growth of SK-OV-3 xenografts
[8]
  solubility thermodynamic: ~44 mg/mL (≈ 50 mM)
[9]
  IC50: 320 nM
[10]; 6 h
  Tumor Conc.: 1.61 nmol/g of tissue
[10]; 24 h
  Tumor Conc.: 0.203 nmol/g of tissue
[10]; 48 h
  Tumor Conc.: 0.0188 nmol/g of tissue
[10]; […]
  Tumor Conc.: 6.43 nmol/g of tissue
[10]
  Plasma Conc.: BQL
[10]; iv, 50 mg/kg
  tumor targeting (tissue distribution in plasma, tumor and heart): selectively targets and accumulates in tumor cells
